Series [1] in a line: Human crossover study, systolic blood pressure (Example 4). The conditions noted are these: theobromine 700 mg, caffeine 120 mg; for Change in systolic blood pressure, 1 hour: 1 hour after treatment; for Change in systolic blood pressure, 1 hour / Change in systolic blood pressure, 3 hours / Change in systolic blood pressure, Time zero: gelatine capsule; for Change in systolic blood pressure, 3 hours: 3 hours after treatment. The text has this:
(§1) Volunteers consumed one of 4 treatments: theobromine only, caffeine only, theobromine and caffeine combined or placebo. […] Theobromine was pharmaceutical grade, supplied by Fagron, Netherlands. […] The placebo capsules matched in appearance and were filled with Avicel (microcrystalline cellulose). The gelatin capsules (size 1) were supplied by Blockland Medical supplies and meet European Pharmacopoeia (Ph. Eur) standards. […] Twenty-four healthy volunteers took part and arrived at the laboratory having consumed a standard lunch and having abstained from theobromine- and caffeine-containing foods such as chocolate for 12 hours. At the start of each session, participants answered a baseline set of questionnaires, which took approximately 15 minutes to complete. On completion, they were given a 10 minute break in which to consume the capsules. The questionnaire was repeated 1, 2 and 3 hours after ingestion. Blood pressure was measured at 0, 1 and 3 hours after treatment. Participants were allowed to read quietly between test batteries.

The nature of series [2]: Human crossover study, Bond-Lader mood questionnaire: alertness (Example 4). Format: in vivo. To be noted: theobromine 700 mg, caffeine 120 mg, gelatine capsule; for Alertness score in Bond-Lader test, 1 hour: 1 hour after ingestion; for Alertness score in Bond-Lader test, 2 hours: 2 hours after ingestion; for Alertness score in Bond-Lader test, 3 hours: 3 hours after ingestion; for Alertness score in Bond-Lader test, Time zero: time zero (baseline), 24 healthy volunteers.
Description: as §1

In the case of `Cn1c(=O)c2c(ncn2C)n(C)c1=O` [Caffeine, 1,3,7-trimethylxanthine], in series [1], the “Change in systolic blood pressure, 1 hour” value is “+10 Hgmm”; the “Change in systolic blood pressure, 3 hours” value is −3 Hgmm; the “Change in systolic blood pressure, Time zero” value stood at 0 Hgmm. The “Effect on systolic blood pressure after 1 hour (in words)” value in series [1] (after 1 hour) is listed as “rise in systolic blood pressure (significantly higher than placebo)”. In addition, in series [2], the “Alertness score in Bond-Lader test, 1 hour” value is “+0.01”; the “Alertness score in Bond-Lader test, 2 hours” value is given as “+0.05”; the “Alertness score in Bond-Lader test, 3 hours” value is listed as “+0.07”; the “Alertness score in Bond-Lader test, Time zero” value turned out to be 0.
Regarding `Cn1cnc2c1c(=O)[nH]c(=O)n2C` [Theobromine, 3,7-dimethylxanthine], in series [1], the “Change in systolic blood pressure, 1 hour” value is on record as “+3 Hgmm”; the “Change in systolic blood pressure, 3 hours” value is given as “+4 Hgmm”; the “Change in systolic blood pressure, Time zero” value amounted to 0 Hgmm. Also, in series [2], the “Alertness score in Bond-Lader test, 1 hour” value was −0.06; the “Alertness score in Bond-Lader test, 2 hours” value was −0.03; the “Alertness score in Bond-Lader test, 3 hours” value is given as −0.01; the “Alertness score in Bond-Lader test, Time zero” value came out at 0.

Source of the values: patent publication US20100166933A1, “Frozen Confectionery and Beverage Products” (priority 2008, published 2010).
